Among the data in patent US10138260B2, “Compounds of phosphinanes and azaphosphinanes, a process for their preparation and pharmaceutical compositions containing them” (LES LABORATOIRES SERVIER, priority 2016, dated 2018) are inhibition values, retold here.

SMILES strings stand for the structures.

As a reminder, the inhibition is the share of the control response that was lost under treatment.

This test concerns the target T1, TAFIa (Homo sapiens, UniProt Q96IY4).
T1 sequence (Q96IY4 115-423): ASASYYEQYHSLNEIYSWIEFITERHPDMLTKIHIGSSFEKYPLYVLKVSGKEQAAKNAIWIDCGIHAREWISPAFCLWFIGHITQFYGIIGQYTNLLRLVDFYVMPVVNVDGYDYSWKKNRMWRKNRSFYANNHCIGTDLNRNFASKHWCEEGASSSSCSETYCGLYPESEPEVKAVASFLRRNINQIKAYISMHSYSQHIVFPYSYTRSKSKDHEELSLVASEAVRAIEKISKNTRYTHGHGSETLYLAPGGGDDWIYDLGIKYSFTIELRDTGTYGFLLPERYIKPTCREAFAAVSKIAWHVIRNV
In words: Inhibition of TAFIa (hippuryl-Arg test). In kind it is biochemical. Particulars: TAFIa 2 nM, hippuryl-arginine 5 mM, 45 minutes, relative to control containing the carrier; for inhibition at 0.01 µM: compound at 10 nM; for inhibition at 0.02 µM: compound at 20 nM. Here is the method: Human TAFI (4 nM) is incubated with human thrombin (10 nM) and human thrombomodulin (5 nM) in the presence of calcium (10 mM). After incubation for 20 minutes, the activation reaction is stopped by addition of PPACK (1 μM final), an irreversible thrombin inhibitor.
The reactions take place in Hepes buffer (25 mM Hepes, 137 mM NaCl, 3.5 mM KCl)+0.1% bovine albumin, pH 7.4 at 28° C. and with stirring.
The test compound is added to the solution of TAFIa (2 nM) and incubated for 45 minutes in the presence of hippuryl-arginine (5 mM). The reaction is stopped by addition of hydrochloric acid (1M) neutralised subsequently with sodium hydroxide (1M), and then the mixture is buffered with disodium hydroxyphosphate (1M pH 7.4). […] The reaction mixture is stirred (vortex) and then centrifuged. The supernatant is transferred to a 96-well microplate, and the absorbance is measured using a spectrophotometer at 405 nm (Spectramax plus, Molecular Devices).
The OD value of a well containing the reagents without TAFI is subtracted from all the OD values measured. The percentage inhibition of TAFIa at a given concentration of the test compound is determined by means of the following formula: % inhibition=100−[(OD compound×100)/OD carrier]
The compounds are evaluated at 10 nM and 20 nM under the experimental conditions described above and the results are expressed as the percentage inhibition relative to a control containing the carrier in the absence of compound.

`NCCCC[C@@]1(C(=O)O)CN(Cc2ccc(F)cc2-c2ccc3ccccc3c2)CCP1(=O)O` [Example 215, (3S)-3-(4-AMINOBUTYL)-1-[(4-FLUORO-2-NAPHTHALEN-2-YLPHENYL)METHYL]-4-HYDROXY-4-OXO-1,4-AZAPHOSPHINANE-3-CARBOXYLIC ACID] displayed an inhibition at 0.01 µM of 82% and an inhibition at 0.02 µM of 91%.
For `NCCCC[C@@]1(C(=O)O)CN(Cc2ccc(F)cc2-c2cc3ccccc3s2)CCP1(=O)O` [Example 216, (3S)-3-(4-AMINOBUTYL)-1-[[2-(1-BENZOTHIOPHEN-2-YL)-4-FLUOROPHENYL]-METHYL]-4-HYDROXY-4-OXO-1,4-AZAPHOSPHINANE-3-CARBOXYLIC ACID] the same measures were 71% and 85%.
As to `Cn1cncc1-c1cc(F)ccc1CN1CCP(=O)(O)[C@](CCCCN)(C(=O)O)C1` [Example 217, (3S)-3-(4-AMINOBUTYL)-1-[4-FLUORO-2-(1-METHYL-1H-IMIDAZOL-5-YL)BENZYL]-4-HYDROXY-4-OXO-1,4-AZAPHOSPHINANE-3-CARBOXYLIC ACID], the inhibition at 0.01 µM is 66% and the inhibition at 0.02 µM was determined as 83%.
`Cc1ccc(-c2cc(Cl)ccc2CN2CCP(=O)(O)[C@](CCCCN)(C(=O)O)C2)cc1` [Example 218, (3S)-3-(4-AMINOBUTYL)-1-[[4-CHLORO-2-(4-METHYLPHENYL)PHENYL]METHYL]-4-HYDROXY-4-OXO-1,4-AZAPHOSPHINANE-3-CARBOXYLIC ACID] came in with an inhibition at 0.01 µM of 67% and an inhibition at 0.02 µM of 83%.
The like results for `Cc1ncc(-c2cc(F)ccc2CN2CCP(=O)(O)[C@](CCCCN)(C(=O)O)C2)n1C` [Example 219, (3S)-3-(4-AMINOBUTYL)-1-[2-(1,2-DIMETHYL-1H-IMIDAZOL-5-YL)-4-FLUOROBENZYL]-4-HYDROXY-4-OXO-1,4-AZAPHOSPHINANE-3-CARBOXYLIC ACID] were, in that order, 92% and 98%.
For `NCCCC[C@@]1(C(=O)O)CN(Cc2ccc(F)cc2-c2cnc3ccccn23)CCP1(=O)O` [Example 220, (3S)-3-(4-AMINOBUTYL)-1-[(4-FLUORO-2-IMIDAZO[1,2-A]PYRIDIN-3-YLPHENYL)METHYL]-4-HYDROXY-4-OXO-1,4-AZAPHOSPHINANE-3-CARBOXYLIC ACID], the inhibition at 0.01 µM stood at 83% and 0.02 µM produced 97% inhibition.
In the case of `COc1cc(-c2cc(F)ccc2CN2CCP(=O)(O)[C@](CCCCN)(C(=O)O)C2)ccn1` [Example 221, (3S)-3-(4-AMINOBUTYL)-1-[[4-FLUORO-2-(2-METHOXYPYRIDIN-4-YL)PHENYL]-METHYL]-4-HYDROXY-4-OXO-1,4-AZAPHOSPHINANE-3-CARBOXYLIC ACID], at 0.01 µM the inhibition was 75% and the inhibition at 0.02 µM was determined as 88%.
The compound `NCCCC[C@@]1(C(=O)O)CN(Cc2ccc(F)cc2-c2cc[nH]c(=O)c2)CCP1(=O)O` [Example 222, (3S)-3-(4-AMINOBUTYL)-1-[[4-FLUORO-2-(2-OXO-1H-PYRIDIN-4-YL)PHENYL]-METHYL]-4-HYDROXY-4-OXO-1,4-AZAPHOSPHINANE-3-CARBOXYLIC ACID] came in with an inhibition at 0.01 µM of 73% and an inhibition at 0.02 µM of 85%.
`Cc1ccc(-c2cc(O)ccc2CN2CCP(=O)(O)[C@](CCCCN)(C(=O)O)C2)cc1` [Example 223, (3S)-3-(4-AMINOBUTYL)-4-HYDROXY-1-[[4-HYDROXY-2-(4-METHYLPHENYL)-PHENYL]METHYL]-4-OXO-1,4-AZAPHOSPHINANE-3-CARBOXYLIC ACID] registered an inhibition at 0.01 µM of 71% and an inhibition at 0.02 µM of 83%.
With `NCCCC[C@@]1(C(=O)O)CN(Cc2ccc(O)cc2-c2cnc3ccccn23)CCP1(=O)O` [Example 224, (3S)-3-(4-AMINOBUTYL)-4-HYDROXY-1-[4-HYDROXY-2-(IMIDAZO[1,2-A]-PYRIDIN-3-YL)BENZYL]-4-OXO-1,4-AZAPHOSPHINANE-3-CARBOXYLIC ACID], the inhibition at 0.01 µM was 86% and the inhibition at 0.02 µM was 93%.
With `NCCCC[C@@]1(C(=O)O)CN(Cc2ccc(O)cc2-c2ccncc2)CCP1(=O)O` [Example 225, (3S)-3-(4-AMINOBUTYL)-4-HYDROXY-1-[(4-HYDROXY-2-PYRIDIN-4-YLPHENYL)METHYL]-4-OXO-1,4-AZAPHOSPHINANE-3-CARBOXYLIC ACID], testing at 0.01 µM gave an inhibition of 76% and at 0.02 µM the inhibition was 85%.
Take `NCCCC[C@@]1(C(=O)O)CN(Cc2ccc(F)cc2-c2cccc(F)c2)CCP1(=O)O` [Example 226, (3S)-3-(4-AMINOBUTYL)-1-[[4-FLUORO-2-(3-FLUOROPHENYL)PHENYL]METHYL]-4-HYDROXY-4-OXO-1,4-AZAPHOSPHINANE-3-CARBOXYLIC ACID]: testing at 0.01 µM gave an inhibition of 71% and the inhibition at 0.02 µM was found to be 88%.
Compound `NCCCC[C@@]1(C(=O)O)CN(Cc2ccc(O)cc2-c2cccs2)CCP1(=O)O` [Example 227, (3S)-3-(4-AMINOBUTYL)-4-HYDROXY-1-[(4-HYDROXY-2-THIOPHEN-2-YLPHENYL)METHYL]-4-OXO-1,4-AZAPHOSPHINANE-3-CARBOXYLIC ACID] yielded an inhibition at 0.01 µM of 84% and an inhibition at 0.02 µM of 91%.
`NCCCC[C@@]1(C(=O)O)CN(Cc2ccc(O)cc2-c2ccc(F)cc2)CCP1(=O)O` [Example 228, (3S)-3-(4-AMINOBUTYL)-1-[[2-(4-FLUOROPHENYL)-4-HYDROXYPHENYL]-METHYL]-4-HYDROXY-4-OXO-1,4-AZAPHOSPHINANE-3-CARBOXYLIC ACID] returned an inhibition at 0.01 µM of 63% and an inhibition at 0.02 µM of 82%.
`COc1ccc(-c2cc(O)ccc2CN2CCP(=O)(O)[C@](CCCCN)(C(=O)O)C2)cc1OC` [Example 229, (3S)-3-(4-AMINOBUTYL)-1-[[2-(3,4-DIMETHOXYPHENYL)-4-HYDROXYPHENYL]-METHYL]-4-HYDROXY-4-OXO-1,4-AZAPHOSPHINANE-3-CARBOXYLIC ACID] gave an inhibition at 0.01 µM of 81% and an inhibition at 0.02 µM of 89%.
Compound `Cn1nc(C(F)(F)F)cc1-c1ccccc1CN1CCP(=O)(O)[C@](CCCCN)(C(=O)O)C1` [Example 232, (3S)-3-(4-AMINOBUTYL)-4-HYDROXY-1-[[2-[2-METHYL-5-(TRIFLUOROMETHYL)-PYRAZOL-3-YL]PHENYL]METHYL]-4-OXO-1,4-AZAPHOSPHINANE-3-CARBOXYLIC ACID] registered an inhibition at 0.01 µM of 80% and an inhibition at 0.02 µM of 89%.
On to `NCCCC[C@@]1(C(=O)O)CN(Cc2ccc(F)cc2-c2cncnc2)CCP1(=O)O` [Example 234, (3S)-3-(4-AMINOBUTYL)-1-[(4-FLUORO-2-PYRIMIDIN-5-YLPHENYL)METHYL]-4-HYDROXY-4-OXO-1,4-AZAPHOSPHINANE-3-CARBOXYLIC ACID], for which the inhibition at 0.01 µM was determined as 68% and testing at 0.02 µM gave an inhibition of 79%.
In turn, `Cn1nccc1-c1ccccc1CN1CCP(=O)(O)[C@](CCCCN)(C(=O)O)C1` [Example 235, (3S)-3-(4-AMINOBUTYL)-4-HYDROXY-1-[[2-(2-METHYLPYRAZOL-3-YL)PHENYL]METHYL]-4-OXO-1,4-AZAPHOSPHINANE-3-CARBOXYLIC ACID] showed an inhibition at 0.01 µM of 60% and an inhibition at 0.02 µM of 77%.
As to `Cn1nccc1-c1cc(F)ccc1CN1CCP(=O)(O)[C@](CCCCN)(C(=O)O)C1` [Example 236, (3S)-3-(4-AMINOBUTYL)-1-[[4-FLUORO-2-(2-METHYLPYRAZOL-3-YL)PHENYL]-METHYL]-4-HYDROXY-4-OXO-1,4-AZAPHOSPHINANE-3-CARBOXYLIC ACID], the inhibition at 0.01 µM stood at 81% and the inhibition at 0.02 µM came out at 91%.
`NCCCC[C@@]1(C(=O)O)CN(Cc2ccccc2-c2cnc3ccccn23)CCP1(=O)O` [Example 237, (3S)-3-(4-AMINOBUTYL)-4-HYDROXY-1-[(2-IMIDAZO[1,2-A]PYRIDIN-3-YLPHENYL)METHYL]-4-OXO-1,4-AZAPHOSPHINANE-3-CARBOXYLIC ACID]: the inhibition at 0.01 µM is 77% and the inhibition at 0.02 µM came to 84%.
Compound `NCCCC[C@@]1(C(=O)O)CN(Cc2ccc(F)cc2-c2cccc(O)c2)CCP1(=O)O` [Example 238, (3S)-3-(4-AMINOBUTYL)-1-[[4-FLUORO-2-(3-HYDROXYPHENYL)PHENYL]-METHYL]-4-HYDROXY-4-OXO-1,4-AZAPHOSPHINANE-3-CARBOXYLIC ACID] gave an inhibition at 0.01 µM of 70% and an inhibition at 0.02 µM of 87%.
Consider `COc1ccc(-c2cc(F)ccc2CN2CCP(=O)(O)[C@](CCCCN)(C(=O)O)C2)cn1` [Example 239, (3S)-3-(4-AMINOBUTYL)-1-[[4-FLUORO-2-(6-METHOXYPYRIDIN-3-YL)PHENYL]-METHYL]-4-HYDROXY-4-OXO-1,4-AZAPHOSPHINANE-3-CARBOXYLIC ACID], for which 0.01 µM produced 85% inhibition and the inhibition at 0.02 µM worked out at 96%.
